For this assay, the target named is T1, human TLR7 (hTLR7) (Homo sapiens, UniProt Q9NYK1).
T1 construct: host or cells: HEK293 (HEK-Blue hTLR7)
T1 sequence (Q9NYK1 27-1049): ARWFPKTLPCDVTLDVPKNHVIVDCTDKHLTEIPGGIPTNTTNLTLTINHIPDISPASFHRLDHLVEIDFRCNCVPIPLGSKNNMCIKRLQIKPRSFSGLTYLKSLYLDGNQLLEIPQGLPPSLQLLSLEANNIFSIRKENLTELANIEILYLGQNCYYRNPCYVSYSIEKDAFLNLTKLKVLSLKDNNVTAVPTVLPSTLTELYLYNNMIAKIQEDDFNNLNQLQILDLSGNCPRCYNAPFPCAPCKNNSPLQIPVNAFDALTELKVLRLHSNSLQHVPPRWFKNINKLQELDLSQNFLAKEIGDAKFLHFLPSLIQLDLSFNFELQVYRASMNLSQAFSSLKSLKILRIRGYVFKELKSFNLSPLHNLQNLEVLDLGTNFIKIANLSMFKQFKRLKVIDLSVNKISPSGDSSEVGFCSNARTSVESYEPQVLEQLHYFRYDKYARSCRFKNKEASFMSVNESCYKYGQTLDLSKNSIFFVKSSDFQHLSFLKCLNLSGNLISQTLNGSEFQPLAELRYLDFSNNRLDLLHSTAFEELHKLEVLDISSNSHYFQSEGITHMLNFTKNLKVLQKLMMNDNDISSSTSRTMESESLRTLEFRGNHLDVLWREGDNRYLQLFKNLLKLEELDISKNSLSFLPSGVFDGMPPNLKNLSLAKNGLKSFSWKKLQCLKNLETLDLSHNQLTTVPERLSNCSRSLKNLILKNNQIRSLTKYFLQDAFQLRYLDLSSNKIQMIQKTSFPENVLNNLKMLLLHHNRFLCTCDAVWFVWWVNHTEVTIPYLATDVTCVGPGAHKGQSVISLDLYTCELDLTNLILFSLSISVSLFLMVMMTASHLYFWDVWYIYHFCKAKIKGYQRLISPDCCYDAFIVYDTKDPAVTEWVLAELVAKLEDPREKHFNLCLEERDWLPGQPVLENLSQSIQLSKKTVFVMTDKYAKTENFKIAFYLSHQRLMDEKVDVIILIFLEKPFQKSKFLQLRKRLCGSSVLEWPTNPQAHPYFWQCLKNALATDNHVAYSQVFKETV
The assay can be described thus: HEK-Blue hTLR7 cell assay (NF-kB/AP-1 driven SEAP reporter). In kind it is cell-based. An excerpt:
HEK-Blue™ TLR7 cells were purchased from Invivogen (San Diego, Calif.). The following description was taken from the product information sheet.
“HEK-Blue™ hTLR7 cells are designed for studying the stimulation of human TLR7 (hTLR7) by monitoring the activation of NF-kB. HEK-Blue™ hTLR7 cells were obtained by co-transfection of the hTLR7 gene and an optimized secreted embryonic alkaline phosphatase (SEAP) reporter gene into HEK293 cells. The SEAP reporter gene is placed under the control of the IFN-b minimal promoter fused to five NF-kB and AP-1-binding sites. Stimulation with a TLR7 ligand activates NF-kB and AP-1 which induce the production of SEAP, which is detected by the HEK-Blue™ Detection cell culture medium.”
A typical assay protocol involved the following steps:
1. Cells were cultured according to the product information sheet.
2. 10 mM compound stock in DMSO were first diluted to 3 mM and then 3-fold serially diluted using DMSO to afford a 10-pt dilution.
3. 3 μl of the diluted DMSO were added to 57 μl HEK-Blue™ Detection media for a further 20-fold dilution.
4. 10 μl of the diluted compound in assay media were added into 40 μl cell culture (in HEK-Blue™ Detection media) in 384-well plate. Final cell concentration=8,000 cells per well.
5. The plates were incubated at 37° C. in 5% CO2 for 16 h. SEAP was determined using a spectrophotometer at 620-655 nm.

Read-outs that look alike come from different tables or passages of the source. Residues, ends and D or L forms follow the SMILES beside them. No end group written: not given here. *: point of attachment. X1 = CCCC[C@@H](CCS(C)(=O)=O)Nc1nc(N)nc(C)c1Cc1cc(CC(=O)*)ccc1OC Some results are limits rather than exact numbers.

For the compound `CCCC[C@@H](CCS(C)(=O)=O)Nc1nc(N)nc(C)c1Cc1cc(CC(=O)N[C@@H](CCC(=O)O)C(=O)N[C@@H](CCC(N)=O)C(=O)N[C@@H](CC(C)C)C(=O)N[C@@H](CO)C(=O)N[C@@H](CO)C(=O)N[C@H](C(=O)N[C@@H](CO)C(=O)N[C@@H](CO)C(=O)N[C@@H](Cc2ccccc2)C(=O)N[C@@H](CCC(=O)O)C(=O)N[C@@H](CCCNC(=N)N)C(=O)N[C@@H](Cc2ccccc2)C(=O)N[C@@H](CCC(=O)O)C(=O)N[C@H](C(=O)N[C@@H](Cc2ccccc2)C(=O)N2CCC[C@H]2C(=O)N[C@@H](CCCCN)C(=O)N[C@@H](CCC(=O)O)C(=O)N[C@@H](CO)C(=O)N[C@@H](CO)C(=O)N[C@@H](Cc2c[nH]c3ccccc23)C(=O)N2CCC[C@H]2C(=O)N[C@@H](CC(N)=O)C(=O)N[C@@H](Cc2c[nH]cn2)C(=O)N[C@@H](CC(N)=O)C(=O)O)[C@@H](C)CC)C(C)C)ccc1OC` [*AP11] (X1-EQLSSVSSFERFEIFPKESSWPNHN-OH), the EC50 (HEK TLR7 activity of Compound 1-peptide conjugates, read-out: EC50, Peptide - Compound 1 Conjugate) was 0.3 µM.

Turning to `CCCC[C@@H](CCS(C)(=O)=O)Nc1nc(N)nc(C)c1Cc1cc(CC(=O)O)ccc1OC` [Compound 1, (S)-2-(3-((2-amino-4-methyl-6-((1-(methylsulfonyl)heptan-3-yl)amino)pyrimidin-5-yl)methyl)-4-methoxyphenyl)acetic acid], the EC50 (HEK-Blue hTLR7 cells, 16 h incubation, SEAP read at 620-655 nm, read-out: HEK-TLR7 EC50) was found to be 0.1 µM. TLTCGFADLMGYIPLVGAPLGGAAR [AP3]: the half-maximal effective concentration (EC50) (HEK TLR7 activity of unconjugated (naked) peptides, read-out: EC50, Peptide without Compound 1) was above 30 µM.

For the origin of these results see patent US20210228713A1, “TLR7 PEPTIDE CONJUGATES” (Apros Therapeutics, Inc., priority 2018, published 2021).
